# Experimental data reported in patent US20080206770A1, “SCREENING METHODS USED TO IDENTIFY COMPOUNDS THAT MODULATE SKIN STROMAL CELLS (FIBROBLASTS) ABILITY TO MODIFY FUNCTION OF EXTRACELLULAR MATRIX” (priority 2007, published 2008).
# Columns and labels:
# [1] = system: dermal fibroblasts isolated from 17 individuals; test: Real time RT-PCR of ECM components, nuclear hormone receptors and coregulators in fibroblasts from 17 individuals; format: cell-based, human; settings: 24 hours
# Description: Total RNA was extracted from cells using RNA aqueous kit (Ambion, USA). First-strand cDNAs were synthesized with Superscript III reverse transcriptase (Invitrogen, USA) and 1 μg of total RNA using oligo d(T) priming in a final reaction volume of 40 μL.
# Levels of specific mRNAs were measured by real-time RT-PCR using Platinum SYBR Green qPCR SuperMix UDG (Invitrogen) according the protocol on the LightCycler 2.0 (Roche, US). The cycling program steps were: for one cycle 50° C. 2 min, for one cycle 95° C. 2 min and for 45 cycles: 95° C. 10 s, 60° C. 10 s, 72° C. 10 s. All samples were run in triplicates. Results were analyzed with the comparative Ct method (from Applied Biosystems manual; Livak and Schmittgen, 2001). Every sample was normalized for the housekeeping gene GAPDH. Transcript levels in the atRA and TGFb1 treated samples were compared to control samples.
# [2] = system: skin fibroblasts from 30 individuals; test: Combined score of expression stimulation of 5 genes in fibroblast isolates (FIG. 1); format: cell-based, human; settings: 24 hour treatment, atRA 10^-7 M, Matrixyl 1 μM, KappaElastin 1 μM
# Description: Human dermal fibroblasts were grown in DMEM cell culture media containing 10% fetal bovine serum and 1% penicillin/streptomycin (Invitrogen). For all experiments, third-passage fibroblasts were used one day after reaching confluence. […] After 24 hour treatment RNA and protein was isolated and analyzed for the expression of components of ECM and transcriptional regulators.
# Total RNA from various human tissues was purified using RNAwiz (Ambion, USA) and subjected to subsequent DNase I treatment using the DNA-Free kit (Ambion). Total RNA from cancer cells was purified by using 4PCRmini kit (Ambion). First-strand cDNAs were synthesized with Superscript III reverse transcriptase (Invitrogen, USA) and 5 μg of total RNA using oligo d(T) priming in a final reaction volume of 50 μL
# The cDNA was amplified by PCR using the 2.5 U Hot-Firepol (Solis BioDyne, Estonia) and buffer Yellow (Naxo, Estonia). Reaction was performed in a 10 ul volume, using 0.5 ul cDNA as a template. Following primer sets were designed for this study:
# The combined score of expression stimulation of 5 genes was calculated and blotted for each fibroblast isolate. […] This biological variation provides a good biological rational to use molecular diagnostics for matching cosmetics product and skin cells of specific individual (personalized cosmetics).
# [3] = fibroblasts from 17 individuals, 10 ng/ml
substance,measurement,setting,value
TGFbeta1: well-characterized profibrotic factor,expression of metalloproteinases and PPARγ,"[1]; 10 ng/ml, 17 individuals",suppresses significantly
same,gene expression of majority of collagens,"[1]; 10 ng/ml, 17 individuals",strongly upregulated
same,individual variation of collagen gene expression between individual fibroblasts,"[1]; 10 ng/ml, 17 individuals",up to 13 fold
same,variation of expression of PPARγ between different individuals,"[1]; 10 ng/ml, 17 individuals",up to 17 fold
same,effect on gene expression of different ECM genes compared with atRA,[1]; TGFβ1 10 ng/ml vs atRA 1 μM,noticeably stronger
same,"CBP expression in TGFbeta1 treatment compared to control, from-to between individuals",[1]; [3],(from −2.24 to 2.29) fold
same,"COL1A1 expression in TGFbeta1 treatment compared to control, from-to between individuals",[1]; [3],(from −1.11 to 7.75) fold
same,"COL1A2 expression in TGFbeta1 treatment compared to control, from-to between individuals",[1]; [3],(from 1.14 to 9.58) fold
same,"COL3A1 expression in TGFbeta1 treatment compared to control, from-to between individuals",[1]; [3],(from −1.75 to 6.82) fold
same,"COL4A1 expression in TGFbeta1 treatment compared to control, from-to between individuals",[1]; [3],(from 2.52 to 16.22) fold
same,"COL5A1 expression in TGFbeta1 treatment compared to control, from-to between individuals",[1]; [3],(from −1.61 to 6.08) fold
same,"COL5A2 expression in TGFbeta1 treatment compared to control, from-to between individuals",[1]; [3],(from 1.3 to 3.42) fold
same,"CTGF expression in TGFbeta1 treatment compared to control, from-to between individuals",[1]; [3],(from −1.8 to 11.00) fold
same,"ELN expression in TGFbeta1 treatment compared to control, from-to between individuals",[1]; [3],(from −3.33 to 10.63) fold
same,"FN 1 transcr.v.1 expression in TGFbeta1 treatment compared to control, from-to between individuals",[1]; [3],(from −3.23 to 3.75) fold
same,Individual variation of gene expression in TGFbeta1 treatment: CBP,[1]; [3],4.53 fold
same,Individual variation of gene expression in TGFbeta1 treatment: COL1A1,[1]; [3],8.86 fold
same,Individual variation of gene expression in TGFbeta1 treatment: COL1A2,[1]; [3],8.44 fold
same,Individual variation of gene expression in TGFbeta1 treatment: COL3A1,[1]; [3],8.57 fold
same,Individual variation of gene expression in TGFbeta1 treatment: COL4A1,[1]; [3],13.7 fold
same,Individual variation of gene expression in TGFbeta1 treatment: COL5A1,[1]; [3],7.69 fold
same,Individual variation of gene expression in TGFbeta1 treatment: COL5A2,[1]; [3],2.12 fold
same,Individual variation of gene expression in TGFbeta1 treatment: CTGF,[1]; [3],12.8 fold
same,Individual variation of gene expression in TGFbeta1 treatment: ELN,[1]; [3],13.96 fold
same,Individual variation of gene expression in TGFbeta1 treatment: FN 1 transcr.v.1,[1]; [3],6.98 fold
same,"Individual variation of gene expression in TGFbeta1 treatment: MMP1, collagenase 1",[1]; [3],7.02 fold
same,Individual variation of gene expression in TGFbeta1 treatment: MMP2 gelatinase,[1]; [3],4.77 fold
same,Individual variation of gene expression in TGFbeta1 treatment: MMP3 stromelysin,[1]; [3],5.8 fold
same,Individual variation of gene expression in TGFbeta1 treatment: MMP7,[1]; [3],32.8 fold
same,"Individual variation of gene expression in TGFbeta1 treatment: MMP10, stromelysin 2",[1]; [3],45.93 fold
same,Individual variation of gene expression in TGFbeta1 treatment: NCOA1,[1]; [3],5.64 fold
same,Individual variation of gene expression in TGFbeta1 treatment: NCOA2,[1]; [3],1.58 fold
same,Individual variation of gene expression in TGFbeta1 treatment: NCOA3,[1]; [3],6.21 fold
same,Individual variation of gene expression in TGFbeta1 treatment: NCOA5,[1]; [3],4.56 fold
same,Individual variation of gene expression in TGFbeta1 treatment: NCOA6,[1]; [3],2.82 fold
same,Individual variation of gene expression in TGFbeta1 treatment: NCOR1,[1]; [3],7.31 fold
same,Individual variation of gene expression in TGFbeta1 treatment: PPARG,[1]; [3],17.71 fold
same,Individual variation of gene expression in TGFbeta1 treatment: TIMP1,[1]; [3],5.73 fold
same,"MMP1, collagenase 1 expression in TGFbeta1 treatment compared to control, from-to between individuals",[1]; [3],(from −5.05 to 1.97) fold
same,"MMP2 gelatinase expression in TGFbeta1 treatment compared to control, from-to between individuals",[1]; [3],(from −2.51 to 2.26) fold
same,"MMP3 stromelysin expression in TGFbeta1 treatment compared to control, from-to between individuals",[1]; [3],(from −3.22 to 2.58) fold
same,"MMP7 expression in TGFbeta1 treatment compared to control, from-to between individuals",[1]; [3],(from −29.96 to 2.84) fold
same,"MMP10, stromelysin 2 expression in TGFbeta1 treatment compared to control, from-to between individuals",[1]; [3],(from −5.0 to 40.93) fold
same,"NCOA1 expression in TGFbeta1 treatment compared to control, from-to between individuals",[1]; [3],(from −2.76 to 2.88) fold
same,"NCOA2 expression in TGFbeta1 treatment compared to control, from-to between individuals",[1]; [3],(from −2.54 to −0.96) fold
same,"NCOA3 expression in TGFbeta1 treatment compared to control, from-to between individuals",[1]; [3],(from −4.81 to 1.4) fold
same,"NCOA5 expression in TGFbeta1 treatment compared to control, from-to between individuals",[1]; [3],(from −3.13 to 1.43) fold
same,"NCOA6 expression in TGFbeta1 treatment compared to control, from-to between individuals",[1]; [3],(from 1.64 to 1.18) fold
same,"NCOR1 expression in TGFbeta1 treatment compared to control, from-to between individuals",[1]; [3],(from −2.54 to 4.77) fold
same,"PPARG expression in TGFbeta1 treatment compared to control, from-to between individuals",[1]; [3],(from −16.51 to 1.2) fold
same,"TIMP1 expression in TGFbeta1 treatment compared to control, from-to between individuals",[1]; [3],(from −2.45 to 3.28) fold
palmitoys pentapeptide-3 [Matrixyl],"combined score of expression stimulation of 5 genes (COL1A1, COL2A1, elastin, proteoglycan, TIMP1) per fibroblast isolate",[2],3 groups of fibroblasts that have different response
